Reference: patent US20090221643A1, “4-PHENYL-3-(2-PROPYLSULFONYLAMINO) TETRAHYDROFURAN DERIVATIVES WHICH POTENTIATE GLUTAMATE RECEPTORS AND ARE USEFUL IN THE TREATMENT OF SCHIZOPHRENIA” (priority 2006, published 2009)

Target: T1, human GluR2 flip (unedited) AMPA receptor subunit (Homo sapiens, UniProt P42262)
T1 construct: expressed in transfected cells
Test: Calcium influx fluorescence assay (FLUO4, FLIPR), potentiation of glutamate response
Assay type: cell-based
Conditions: HEK293; HEK 293 cells expressing human GluR2 flip (unedited); fluorescence increase relative to that induced by cyclothiazide at maximum response; read-out: activity relative to cyclothiazide (at its maximal response)
Method: The ability of the compounds of the invention to potentiate glutamate receptor-mediated response may be determined a) by using fluorescent calcium-indicator dyes such as FLUO4 and additionally b) by measuring glutamate-evoked current recorded from human GluR2 flip unedited HEK293 cells.
384 well plates are prepared containing confluent monolayer of HEK 293 cells either stably expressing or transiently transfected with human GluR2 flip (unedited) AMPA receptor subunit. These cells form functional homotetrameric AMPA receptors. The tissue culture medium in the wells are discarded and the wells are each washed three times with standard buffer (80 μL) for the stable cell line (145 mM NaCl, 5 mM KCl, 1 mM MgCl2, 2 mM CaCl2, 20 mM N-[2-hydroxyethyl]-piperazine-N-[2-ethanesulfonic acid (HEPES), 5.5 mM glucose, pH 7.3) or with a Na-free buffer for the transient transfected cells (145 mM N-methyl-glucamine instead of NaCl). The plates are then incubated for 60 minutes in the dark with 2 μM FLUO4-AM dye (20 μL) (Molecular Probes, Netherlands) at room temperature to allow cell uptake of the FLUO-4AM, which is then converted to FLUO-4 by intracellular esterases which is unable to leave the cell. After incubation each well is washed three times with buffer (80 μL) (30 μL of buffer remained in each well after washing).
Compounds of the invention (or reference compounds such as cyclothiazide) are dissolved in dimethylsulfoxide (DMSO) at a stock concentration of 10 mM. These solutions are further diluted with DMSO using a Biomek FX (Beckman Coulter) in a 384 compound plate. Each dilution (1 μL) is transferred to another compound plate and buffer (50 μL) is added. An agonist stimulus (glutamate) plate is prepared by dissolving sodium glutamate in water to give a concentration of 100 mM. This solution is diluted with buffer to give a final concentration of 500 μM and dispensed into another 384-well plate (50 μL/well) using a Multidrop (Thermolabsystems).
The cell plate is then transferred into a fluorescence imaging plate based reader [such as the FLIPR384 (Molecular Devices)]. A baseline fluorescence reading is taken over a 10 to 240 second period, and then 10 μL from each plate containing a compound of the invention made up in standard buffer solution (in a concentration range from 100 μM to 10 μM) is added (to give a final concentration in the range 30 μM to 3 μM). The fluorescence is read over 5 minute period. 500 μM glutamate solution (10 μL) is added (to give a final concentration of 100 μM). The fluorescence is then read over a 4 minute period. The activities of the compounds of the invention and reference compounds are determined by measuring peak fluorescence after the last addition. The activity is also expressed relative to the fluorescence increase induced by cyclothiazide at their maximum response (i.e. greater than 30 μM).
The assay described above is believed to have an effective limit of detection of a pEC50 in the region of 3.5-4.0 due to the limitations of compound solubility. The pEC50 result is generally considered to be accurate +/−0.3.

T1 sequence (P42262 25-883 isoform P42262-2 limits assumed): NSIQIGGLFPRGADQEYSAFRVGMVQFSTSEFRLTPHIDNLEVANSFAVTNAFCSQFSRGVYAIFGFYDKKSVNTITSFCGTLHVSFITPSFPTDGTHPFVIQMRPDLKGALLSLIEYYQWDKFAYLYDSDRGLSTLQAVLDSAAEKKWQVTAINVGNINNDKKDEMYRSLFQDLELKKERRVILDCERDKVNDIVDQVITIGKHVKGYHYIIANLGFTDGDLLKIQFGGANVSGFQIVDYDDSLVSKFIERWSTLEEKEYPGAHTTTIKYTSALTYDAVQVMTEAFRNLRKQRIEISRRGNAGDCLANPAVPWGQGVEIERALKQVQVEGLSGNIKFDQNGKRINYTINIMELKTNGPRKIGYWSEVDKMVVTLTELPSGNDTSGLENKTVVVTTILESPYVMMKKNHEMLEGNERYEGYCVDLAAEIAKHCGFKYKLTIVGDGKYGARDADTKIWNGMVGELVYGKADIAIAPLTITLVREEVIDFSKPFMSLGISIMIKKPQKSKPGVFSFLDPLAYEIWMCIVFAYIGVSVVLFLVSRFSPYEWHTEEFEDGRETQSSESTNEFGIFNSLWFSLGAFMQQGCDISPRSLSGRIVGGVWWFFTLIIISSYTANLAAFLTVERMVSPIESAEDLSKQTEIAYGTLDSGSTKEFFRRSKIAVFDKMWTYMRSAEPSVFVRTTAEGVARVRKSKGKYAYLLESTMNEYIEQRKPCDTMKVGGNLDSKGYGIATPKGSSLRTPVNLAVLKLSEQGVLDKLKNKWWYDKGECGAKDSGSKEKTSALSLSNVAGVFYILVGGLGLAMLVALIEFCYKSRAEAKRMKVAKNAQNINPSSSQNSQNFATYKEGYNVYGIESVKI

| Emax [%] | SMILES |
| --- | --- |
| ≥ 50 | CC(C)S(=O)(=O)N[C@@H]1COC[C@@H]1c1ccc(-c2cccs2)cc1 (racemic) [Example 12, N-{cis-4-[4-(2-thienyl)phenyl]tetrahydro-3-furanyl}-2-propanesulfonamide] |
| ≥ 50 | CC(C)S(=O)(=O)N[C@@H]1COC[C@@H]1c1ccc(-c2ccc(C#N)cc2)cc1 (racemic) [Example 8, N-[cis-4-(4′-cyano-4-biphenylyl)tetrahydro-3-furanyl]-2-propanesulfonamide] |
| ≥ 50 | CC(C)S(=O)(=O)N[C@@H]1COC[C@@H]1c1ccc(-c2ccsc2)cc1 (racemic) [Example 11, N-{cis-4-[4-(3-thienyl)phenyl]tetrahydro-3-furanyl}-2-propanesulfonamide] |
| ≥ 50 | CC(=O)c1cccc(-c2ccc([C@H]3COC[C@H]3NS(=O)(=O)C(C)C)cc2)c1 (racemic) [Example 9, N-[cis-4-(3′-acetyl-4-biphenylyl)tetrahydro-3-furanyl]-2-propanesulfonamide] |
| ≥ 50 | CC(C)S(=O)(=O)N[C@@H]1COC[C@@H]1c1ccc(-c2ccc3c(c2)OCO3)cc1 (racemic) [Example 10, N-{cis-4-[4-(1,3-benzodioxol-5-yl)phenyl]tetrahydro-3-furanyl}-2-propanesulfonamide] |
| ≥ 50 | CC(C)S(=O)(=O)N[C@@H]1COC[C@@H]1c1ccc(-c2ccc(F)cc2)cc1 (racemic) [Example 7, N-[cis-4-(4′-fluoro-4-biphenylyl)tetrahydro-3-furanyl]-2-propanesulfonamide] |

The next lines start with the compound.

| SMILES | Emax [%] |
| --- | --- |
| Cc1ccc(-c2ccc([C@H]3COC[C@H]3NS(=O)(=O)C(C)C)cc2)cn1 (racemic) [Example 2, N-{cis-4-[4-(6-methyl-3-pyridinyl)phenyl]tetrahydro-3-furanyl}-2-propanesulfonamide] | ≥ 50 |
| CC(C)S(=O)(=O)N[C@@H]1COC[C@@H]1c1ccc(-c2ccc(F)nc2)cc1 (racemic) [Example 1, N-{cis-4-[4-(6-fluoro-3-pyridinyl)phenyl]tetrahydro-3-furanyl}-2-propanesulfonamide] | ≥ 50 |
| Cc1cncc(-c2ccc([C@H]3COC[C@H]3NS(=O)(=O)C(C)C)cc2)c1 (racemic) [Example 6, N-{cis-4-[4-(5-methyl-3-pyridinyl)phenyl]tetrahydro-3-furanyl}-2-propanesulfonamide] | ≥ 50 |
| CC(C)S(=O)(=O)N[C@@H]1COC[C@@H]1c1ccc(-c2ccc(F)cn2)cc1 (racemic) [Example 3, N-{cis-4-[4-(5-fluoro-2-pyridinyl)phenyl]tetrahydro-3-furanyl}-2-propanesulfonamide] | ≥ 50 |
| CC(C)S(=O)(=O)N[C@@H]1COC[C@@H]1c1ccc(-c2cncc(F)c2)cc1 (racemic) [Example 4, N-{cis-4-[4-(5-fluoro-3-pyridinyl)phenyl]tetrahydro-3-furanyl}-2-propanesulfonamide] | ≥ 50 |
| CC(C)S(=O)(=O)N[C@@H]1COC[C@@H]1c1ccc(-c2ccc(Cl)cn2)cc1 (racemic) [Example 5, N-{cis-4-[4-(5-chloro-2-pyridinyl)phenyl]tetrahydro-3-furanyl}-2-propanesulfonamide] | ≥ 50 |
